{"source": "ChEMBL document CHEMBL1201862", "about": "“PubChem BioAssay data set” (2004)", "key": {"[1]": {"target": "T1, Tyrosine-protein phosphatase non-receptor type 7 (Homo sapiens, UniProt P35236)", "T1 sequence (P35236 whole entry)": "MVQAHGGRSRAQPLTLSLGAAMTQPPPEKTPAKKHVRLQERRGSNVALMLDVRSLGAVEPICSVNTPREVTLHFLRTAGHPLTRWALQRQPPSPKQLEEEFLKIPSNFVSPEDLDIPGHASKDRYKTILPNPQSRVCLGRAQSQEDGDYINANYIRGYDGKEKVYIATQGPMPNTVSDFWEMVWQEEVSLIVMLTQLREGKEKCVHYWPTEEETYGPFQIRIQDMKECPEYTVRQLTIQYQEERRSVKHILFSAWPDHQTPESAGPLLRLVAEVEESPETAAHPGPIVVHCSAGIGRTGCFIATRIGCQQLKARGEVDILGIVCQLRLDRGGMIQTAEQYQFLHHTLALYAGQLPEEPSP", "type": "functional"}, "[2]": {"target": "Glyceraldehyde-3-phosphate dehydrogenase (Homo sapiens, UniProt P04406)", "sequence (P04406 whole entry)": "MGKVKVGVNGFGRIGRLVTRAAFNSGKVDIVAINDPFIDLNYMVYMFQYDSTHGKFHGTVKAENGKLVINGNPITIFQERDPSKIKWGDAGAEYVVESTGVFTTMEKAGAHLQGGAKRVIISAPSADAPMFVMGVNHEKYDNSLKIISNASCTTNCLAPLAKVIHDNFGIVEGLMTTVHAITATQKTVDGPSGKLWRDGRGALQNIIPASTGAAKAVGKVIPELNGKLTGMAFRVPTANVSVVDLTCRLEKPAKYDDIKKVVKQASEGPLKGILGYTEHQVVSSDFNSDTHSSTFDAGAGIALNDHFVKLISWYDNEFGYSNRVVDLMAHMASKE"}, "[3]": {"target": "T2, Dual specificity protein phosphatase 6 (Rattus norvegicus, UniProt Q64346)", "T2 sequence (Q64346 whole entry)": "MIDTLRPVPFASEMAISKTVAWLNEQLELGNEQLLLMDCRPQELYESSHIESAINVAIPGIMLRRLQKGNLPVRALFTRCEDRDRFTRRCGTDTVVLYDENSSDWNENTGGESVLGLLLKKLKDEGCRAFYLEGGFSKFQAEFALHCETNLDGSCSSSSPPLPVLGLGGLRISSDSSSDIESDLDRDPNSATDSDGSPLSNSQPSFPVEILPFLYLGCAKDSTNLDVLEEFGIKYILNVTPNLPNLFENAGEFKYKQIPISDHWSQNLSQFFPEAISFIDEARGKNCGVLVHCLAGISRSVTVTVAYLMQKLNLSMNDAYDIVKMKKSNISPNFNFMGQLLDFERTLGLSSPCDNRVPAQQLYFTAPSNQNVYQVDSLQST"}, "[4]": {"target": "T2, Dual specificity protein phosphatase 6", "type": "functional"}, "Vero [5]": {"test_system": "Vero", "experiment": "cells", "type": "functional, cell-based", "conditions": "Chlorocebus sabaeus"}, "Vero [6]": {"test_system": "Vero", "experiment": "cells", "type": "functional", "conditions": "Chlorocebus sabaeus"}, "Cytochrome P450 1A2": {"target": "T3, Cytochrome P450 1A2 (Homo sapiens, UniProt P05177)", "T3 sequence (P05177 whole entry)": "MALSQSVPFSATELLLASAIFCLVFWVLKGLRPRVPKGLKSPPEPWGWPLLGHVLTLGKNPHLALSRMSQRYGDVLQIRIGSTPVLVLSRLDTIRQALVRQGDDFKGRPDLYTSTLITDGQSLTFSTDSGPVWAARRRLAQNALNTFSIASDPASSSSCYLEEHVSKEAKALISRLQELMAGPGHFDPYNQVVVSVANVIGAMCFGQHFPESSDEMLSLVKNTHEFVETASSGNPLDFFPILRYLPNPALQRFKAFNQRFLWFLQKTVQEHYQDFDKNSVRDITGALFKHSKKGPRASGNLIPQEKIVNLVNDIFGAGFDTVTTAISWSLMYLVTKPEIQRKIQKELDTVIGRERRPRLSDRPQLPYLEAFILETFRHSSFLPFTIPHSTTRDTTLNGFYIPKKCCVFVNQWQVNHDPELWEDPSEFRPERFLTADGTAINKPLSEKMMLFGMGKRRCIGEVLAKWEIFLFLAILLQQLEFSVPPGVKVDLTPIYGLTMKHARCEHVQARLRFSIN"}, "Cytochrome P450 3A4": {"target": "Cytochrome P450 3A4 (Homo sapiens, UniProt P08684)", "sequence (P08684 whole entry)": "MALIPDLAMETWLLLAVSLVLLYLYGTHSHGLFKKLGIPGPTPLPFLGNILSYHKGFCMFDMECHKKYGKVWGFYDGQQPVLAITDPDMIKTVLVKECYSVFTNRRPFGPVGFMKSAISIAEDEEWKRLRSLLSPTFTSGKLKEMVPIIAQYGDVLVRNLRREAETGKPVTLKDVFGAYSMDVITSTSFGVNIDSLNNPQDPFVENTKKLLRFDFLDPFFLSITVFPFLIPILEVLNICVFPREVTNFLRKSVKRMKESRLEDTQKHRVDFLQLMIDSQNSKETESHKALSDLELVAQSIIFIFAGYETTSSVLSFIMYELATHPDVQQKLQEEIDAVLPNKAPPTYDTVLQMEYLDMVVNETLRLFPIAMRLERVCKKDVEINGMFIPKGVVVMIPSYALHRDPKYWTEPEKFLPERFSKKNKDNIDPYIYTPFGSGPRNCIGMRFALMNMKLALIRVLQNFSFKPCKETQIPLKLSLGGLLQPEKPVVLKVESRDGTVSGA"}, "[7]": {"experiment": "NIH-3T3 fibroblast cytotoxicity, dose response, cytotoxicity control, cell-based, fluorescence, Alamar Blue, secondary assay (AID 2327);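 further: NIH-3T3 mouse fibroblasts cultured with fluconazole at 8 µg/mL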", "type": "functional"}, "[8]": {"experiment": "C. albicans growth with fluconazole, confirmation, fluorescence, retest (AID 2467)", "type": "functional, cell-based"}, "[9]": {"target": "T4, Serine/threonine-protein phosphatase (Candida dubliniensis (strain CD36 / CBS 7987 / NCPF 3949 / NRRLY-17841) (Yeast), UniProt B9W6M3)", "T4 sequence (B9W6M3 whole entry)": "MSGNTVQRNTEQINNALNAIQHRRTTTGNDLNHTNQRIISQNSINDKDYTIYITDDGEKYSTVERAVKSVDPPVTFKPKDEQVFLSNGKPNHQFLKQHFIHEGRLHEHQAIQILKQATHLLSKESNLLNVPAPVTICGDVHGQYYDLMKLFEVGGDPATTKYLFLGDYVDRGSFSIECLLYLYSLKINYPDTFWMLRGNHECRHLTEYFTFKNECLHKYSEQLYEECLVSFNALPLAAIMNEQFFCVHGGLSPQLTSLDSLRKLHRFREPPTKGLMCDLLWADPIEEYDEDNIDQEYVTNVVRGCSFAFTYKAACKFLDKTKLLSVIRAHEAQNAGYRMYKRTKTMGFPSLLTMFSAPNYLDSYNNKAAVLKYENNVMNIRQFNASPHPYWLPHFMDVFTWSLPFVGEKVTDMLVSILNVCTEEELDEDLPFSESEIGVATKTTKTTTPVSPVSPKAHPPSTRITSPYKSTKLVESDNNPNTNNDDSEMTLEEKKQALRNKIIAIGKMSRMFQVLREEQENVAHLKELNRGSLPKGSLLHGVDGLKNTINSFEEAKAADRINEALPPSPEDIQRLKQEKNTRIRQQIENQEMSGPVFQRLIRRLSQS", "experiment": "calcineurin pathway inhibitors in yeast reporter, dose response, S. cerevisiae, CDRE-lacZ, luminescence, secondary (AID 2388);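 further: yeast reporter cells carrying a calcineurin-responsive lacZ construct stimulated with calcium chloride; luminescent beta-galactosidase reporter signal in whole cells rather than isolated phosphatase activity; potency for inhibition where a drop in reporter signal means calcineurin blockade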", "type": "functional, cell-based"}, "[10]": {"target": "ATP-dependent molecular chaperone HSP82 (Candida albicans (strain WO-1) (Yeast), UniProt C4YTQ8)", "sequence (C4YTQ8 whole entry)": "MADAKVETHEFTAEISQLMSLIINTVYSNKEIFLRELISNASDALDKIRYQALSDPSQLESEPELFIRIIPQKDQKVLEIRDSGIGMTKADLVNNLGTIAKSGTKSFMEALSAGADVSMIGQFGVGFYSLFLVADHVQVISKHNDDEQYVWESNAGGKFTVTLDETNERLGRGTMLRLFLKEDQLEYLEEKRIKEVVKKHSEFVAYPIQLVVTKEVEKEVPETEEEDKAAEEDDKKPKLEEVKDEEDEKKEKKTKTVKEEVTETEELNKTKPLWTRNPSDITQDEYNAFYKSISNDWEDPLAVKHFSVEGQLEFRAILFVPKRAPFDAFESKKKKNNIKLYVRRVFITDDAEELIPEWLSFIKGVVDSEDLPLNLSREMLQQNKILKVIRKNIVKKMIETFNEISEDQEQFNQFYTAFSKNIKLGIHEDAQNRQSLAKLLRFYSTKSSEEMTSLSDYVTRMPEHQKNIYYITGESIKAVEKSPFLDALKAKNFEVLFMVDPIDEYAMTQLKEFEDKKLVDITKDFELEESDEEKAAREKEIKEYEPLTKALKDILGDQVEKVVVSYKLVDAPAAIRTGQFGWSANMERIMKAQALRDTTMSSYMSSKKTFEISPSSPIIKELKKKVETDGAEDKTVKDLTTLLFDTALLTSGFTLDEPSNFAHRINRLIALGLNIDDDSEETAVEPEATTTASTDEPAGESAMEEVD", "experiment": "loss of DOC-induced GRE-beta-galactosidase reporter signal, dose response, Hsp90 inhibitor project, S. cerevisiae, luminescence (AID 2400);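 further: beta-galactosidase luminescence from glucocorticoid response element reporter as proxy for Hsp90 function; inhibitor potency where signal loss means Hsp90 inhibition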", "type": "functional, cell-based"}, "[11]": {"target": "T5, Voltage-gated N-type calcium channel alpha-1B subunit/Amyloid beta A4 precursor protein-binding family A member 1 (Homo sapiens, UniProt Q00975+Q02410)", "T5 sequence (Q00975 whole entry)": "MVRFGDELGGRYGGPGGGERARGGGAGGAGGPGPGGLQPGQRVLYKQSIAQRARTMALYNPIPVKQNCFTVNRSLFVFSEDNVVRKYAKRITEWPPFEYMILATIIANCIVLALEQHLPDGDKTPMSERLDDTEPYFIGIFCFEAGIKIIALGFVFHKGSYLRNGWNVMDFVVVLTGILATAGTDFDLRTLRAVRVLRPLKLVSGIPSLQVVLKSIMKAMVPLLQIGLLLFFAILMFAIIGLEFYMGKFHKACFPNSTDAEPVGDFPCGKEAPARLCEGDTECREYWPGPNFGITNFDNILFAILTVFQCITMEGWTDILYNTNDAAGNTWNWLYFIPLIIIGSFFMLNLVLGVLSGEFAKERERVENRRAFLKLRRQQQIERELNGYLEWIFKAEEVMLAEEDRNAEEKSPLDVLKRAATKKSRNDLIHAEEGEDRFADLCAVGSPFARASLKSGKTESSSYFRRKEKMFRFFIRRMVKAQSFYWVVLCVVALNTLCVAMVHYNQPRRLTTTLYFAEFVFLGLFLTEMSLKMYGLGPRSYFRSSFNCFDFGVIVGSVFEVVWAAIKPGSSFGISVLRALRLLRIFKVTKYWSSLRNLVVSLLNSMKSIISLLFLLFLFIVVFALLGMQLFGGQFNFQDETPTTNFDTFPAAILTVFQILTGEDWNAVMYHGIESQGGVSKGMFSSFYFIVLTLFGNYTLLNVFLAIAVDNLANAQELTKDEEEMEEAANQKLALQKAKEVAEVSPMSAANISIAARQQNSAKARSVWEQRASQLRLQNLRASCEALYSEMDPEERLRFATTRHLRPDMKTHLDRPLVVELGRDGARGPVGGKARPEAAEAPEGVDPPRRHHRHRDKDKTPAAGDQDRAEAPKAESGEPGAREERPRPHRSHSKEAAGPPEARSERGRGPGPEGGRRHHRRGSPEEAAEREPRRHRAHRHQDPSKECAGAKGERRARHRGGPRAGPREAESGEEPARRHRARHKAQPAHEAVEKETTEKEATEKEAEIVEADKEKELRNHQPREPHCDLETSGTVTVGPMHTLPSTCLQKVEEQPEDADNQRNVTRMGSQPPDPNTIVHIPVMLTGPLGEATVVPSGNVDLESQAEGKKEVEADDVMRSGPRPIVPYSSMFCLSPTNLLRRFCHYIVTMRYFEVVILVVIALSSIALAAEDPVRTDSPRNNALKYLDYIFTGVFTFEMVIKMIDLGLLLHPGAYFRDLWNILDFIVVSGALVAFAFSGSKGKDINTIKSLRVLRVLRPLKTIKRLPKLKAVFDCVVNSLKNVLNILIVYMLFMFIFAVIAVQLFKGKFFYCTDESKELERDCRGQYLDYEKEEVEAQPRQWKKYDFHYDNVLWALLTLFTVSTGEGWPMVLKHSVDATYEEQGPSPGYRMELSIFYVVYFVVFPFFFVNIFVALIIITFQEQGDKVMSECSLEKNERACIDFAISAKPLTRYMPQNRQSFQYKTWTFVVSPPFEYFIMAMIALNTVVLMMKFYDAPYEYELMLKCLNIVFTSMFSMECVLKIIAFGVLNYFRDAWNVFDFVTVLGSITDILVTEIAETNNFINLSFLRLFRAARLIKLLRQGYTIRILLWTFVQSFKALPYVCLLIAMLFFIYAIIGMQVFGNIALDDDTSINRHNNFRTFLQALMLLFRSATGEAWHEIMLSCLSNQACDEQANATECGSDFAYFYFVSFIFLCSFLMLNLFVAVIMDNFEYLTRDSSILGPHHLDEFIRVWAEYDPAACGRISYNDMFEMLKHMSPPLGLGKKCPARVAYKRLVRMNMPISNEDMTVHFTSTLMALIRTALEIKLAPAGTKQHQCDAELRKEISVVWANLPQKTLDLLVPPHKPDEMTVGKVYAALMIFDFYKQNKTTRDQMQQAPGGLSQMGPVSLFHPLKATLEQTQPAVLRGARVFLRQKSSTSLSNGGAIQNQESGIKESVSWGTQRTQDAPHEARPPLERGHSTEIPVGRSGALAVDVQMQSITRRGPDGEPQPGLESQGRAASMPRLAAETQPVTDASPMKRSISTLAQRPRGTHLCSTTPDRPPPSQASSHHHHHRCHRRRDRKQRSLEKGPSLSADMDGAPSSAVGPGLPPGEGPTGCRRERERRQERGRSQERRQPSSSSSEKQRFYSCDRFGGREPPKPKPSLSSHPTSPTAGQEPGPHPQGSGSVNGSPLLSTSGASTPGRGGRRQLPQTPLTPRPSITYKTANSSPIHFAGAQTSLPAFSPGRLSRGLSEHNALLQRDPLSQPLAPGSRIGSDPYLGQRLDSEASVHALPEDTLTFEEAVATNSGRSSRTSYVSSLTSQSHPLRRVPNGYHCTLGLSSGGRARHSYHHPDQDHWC", "T5 sequence (Q02410 whole entry)": "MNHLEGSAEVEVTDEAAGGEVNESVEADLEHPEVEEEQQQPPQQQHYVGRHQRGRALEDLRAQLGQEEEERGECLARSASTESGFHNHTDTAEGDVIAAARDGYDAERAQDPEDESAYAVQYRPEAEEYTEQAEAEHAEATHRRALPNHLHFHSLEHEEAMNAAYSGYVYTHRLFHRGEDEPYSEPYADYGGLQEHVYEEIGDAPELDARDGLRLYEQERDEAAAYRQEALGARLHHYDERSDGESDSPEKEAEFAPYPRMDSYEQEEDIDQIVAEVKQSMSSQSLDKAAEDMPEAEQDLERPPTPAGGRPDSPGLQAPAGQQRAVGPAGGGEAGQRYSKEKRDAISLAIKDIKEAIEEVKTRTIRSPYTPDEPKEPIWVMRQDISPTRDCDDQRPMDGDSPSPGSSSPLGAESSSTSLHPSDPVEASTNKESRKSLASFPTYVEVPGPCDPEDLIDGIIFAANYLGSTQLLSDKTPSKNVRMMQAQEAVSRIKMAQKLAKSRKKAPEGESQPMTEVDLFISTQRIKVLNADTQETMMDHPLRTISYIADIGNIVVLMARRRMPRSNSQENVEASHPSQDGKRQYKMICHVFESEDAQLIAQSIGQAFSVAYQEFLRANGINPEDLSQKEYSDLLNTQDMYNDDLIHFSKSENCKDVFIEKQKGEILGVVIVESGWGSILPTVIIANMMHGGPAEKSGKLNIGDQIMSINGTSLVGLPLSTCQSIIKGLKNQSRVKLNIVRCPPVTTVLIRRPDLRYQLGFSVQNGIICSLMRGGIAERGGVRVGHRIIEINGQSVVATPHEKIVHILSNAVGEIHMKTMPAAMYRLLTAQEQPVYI", "type": "protein assay"}, "[12]": {"target": "T5, Voltage-gated N-type calcium channel alpha-1B subunit/Amyloid beta A4 precursor protein-binding family A member 1", "type": "protein assay", "remark": "listed apart in the source"}, "Escherichia coli [13]": {"test_system": "Escherichia coli", "experiment": "microbe, parasite or virus in culture"}, "[14]": {"experiment": "HEp-2 cell cytotoxicity, dose response, cytotoxicity control for RSV inhibitor project, HTS (AID 2410)", "type": "functional", "conditions": "human respiratory syncytial virus"}, "[15]": {"experiment": "inhibitors of firefly luciferase expression or activity, dose response, H4 neuroglioma cells, luminescence (AID 1990)", "type": "functional, cell-based"}, "[16]": {"experiment": "Luminescence Cell-Based Dose Response HTS to Identify Inhibitors of 5'UTR Stem-Loop Driven Prion Protein mRNA Translation in H4 Neuroglioblastoma Cells. [Related pubchem assays: 1827 (Project Summary), 1813 (Primary HTS)]", "type": "functional"}, "Vero [17]": {"test_system": "Vero", "experiment": "host cell cytotoxicity of antiviral hits, dose response, cytotoxicity control for West Nile virus antiviral project, secondary assay (AID 1650)", "type": "functional", "conditions": "Chlorocebus sabaeus"}, "[18]": {"experiment": "inhibitors of SNCA 5'UTR-driven reporter translation, confirmation, H4 neuroglioma cells, luminescence (AID 1988)", "type": "functional, cell-based"}, "Escherichia coli [19]": {"test_system": "Escherichia coli", "experiment": "microbe, parasite or virus in culture", "remark": "listed apart in the source"}}, "note": "Activity calls are given as the source filed them."}
{"compound": "CCn1c(=O)n(Cc2ccccc2C)c(=O)n([C@@H](Cc2ccccc2)C(=O)O)c1=O", "values": [{"measurement": "IC50", "setting": "[1]", "result": "> 100 µM (not active)"}, {"measurement": "IC50", "setting": "[2]", "result": "> 100 µM (not active)"}, {"measurement": "IC50", "setting": "[3]", "result": "> 100 µM (inactive)"}, {"measurement": "IC50", "setting": "[4]", "result": "> 100 µM (inactive)"}]}
{"compound": "S=C1SCN(CCN2CCOCC2)CN1Cc1ccccc1", "values": [{"measurement": "IC50", "setting": "Vero [5]", "result": "> 25 µM (active)"}, {"measurement": "CC50", "setting": "Vero [6]", "result": "24.4 µM (active)"}, {"measurement": "AC50", "setting": "Cytochrome P450 1A2", "result": "6.31 µM (inconclusive)"}, {"measurement": "AC50", "setting": "Cytochrome P450 3A4", "result": "28.2 µM (inconclusive)"}]}
{"compound": "C=CCN(CC=C)Cc1c(O)ccc2c(=O)c(-c3ccccc3)coc12", "values": [{"measurement": "EC50", "setting": "[7]", "result": "131 µM (active)"}, {"measurement": "EC50", "setting": "[8]", "result": "< 0.03 µM (active)"}, {"measurement": "EC50", "setting": "[9]", "result": "> 180 µM (inactive)"}, {"measurement": "EC50", "setting": "[10]", "result": "> 150 µM (inactive)"}]}
{"compound": "O=C(O)CCc1ccc(-c2cccs2)o1", "values": [{"measurement": "IC50", "setting": "[11]", "result": "21.3 µM (active)"}, {"measurement": "IC50", "setting": "[12]", "result": "3.13 µM (active)"}, {"measurement": "AC50", "setting": "Escherichia coli [13]", "result": "> 380 µM (inactive)"}]}
{"compound": "O=S(=O)(c1cccs1)N1CCN(c2ccnc3cc(Cl)ccc23)CC1", "values": [{"measurement": "CC50", "setting": "[14]", "result": "14.3 µM (active)"}, {"measurement": "EC50", "setting": "[15]", "result": "13.5 µM (active)"}, {"measurement": "EC50", "setting": "[16]", "result": "13.1 µM (active)"}, {"measurement": "CC50", "setting": "Vero [17]", "result": "30 µM (active)"}, {"measurement": "EC50", "setting": "[18]", "result": "> 120 µM (not active)"}, {"measurement": "IC50", "setting": "Vero [5]", "result": "> 25 µM (active)"}, {"measurement": "CC50", "setting": "Vero [6]", "result": "22 µM (active)"}]}
{"compound": "O=C(CSCc1ccc(Cl)cc1)Nc1ccc(-c2nnc(-c3ccccc3)o2)cc1", "values": [{"measurement": "AC50", "setting": "Escherichia coli [19]", "result": "23.9 µM (active)"}, {"measurement": "AC50", "setting": "Escherichia coli [13]", "result": "58.8 µM (active)"}]}
